Measurements published in PMC10434227 (Microbiology Spectrum, 2023).
pEC50: −log10 of the molar value. Where a name gives a salt, the structure may show the parent alone. Read-outs that look alike come from different tables or passages of the source.

Tests used:
in vitro [1] = settings: human
rVACV Nluc/Scarlet = assay: microbe, parasite or virus in culture; format: cell-based, vaccinia virus (VACV)
in vitro [2] = settings: human; remark: listed apart in the source
rVACV Nluc/GFP = assay: microbe, parasite or virus in culture; format: cell-based, vaccinia virus (VACV)
[3] = test system: MPXV USA-2003 (NR-2500) clade II; assay: microbe, parasite or virus in culture; format: cell-based, monkeypox virus (MPXV)
A549 cells [4] = test system: A549 cells
A549 cells [5] = test system: A549 cells; remark: listed apart in the source
[6] = Orthopoxvirus vaccinia, A549, read-out: EC50 FP (Scarlet fluorescence)
[7] = Orthopoxvirus vaccinia, A549, read-out: EC50 Nluc
[8] = Orthopoxvirus vaccinia, A549, read-out: EC50 FP (GFP fluorescence)
[9] = Monkeypox virus, A549, read-out: EC50 against MPXV
[10] = read-out: EC50 FP (Scarlet fluorescence)
[11] = read-out: EC50 FP (GFP fluorescence)

| Molecule | CC50 (in vitro [1]) | pEC50 (rVACV Nluc/Scarlet; [6]) | pEC50 (rVACV Nluc/Scarlet; [7]) | CC50 (in vitro [2]) | pEC50 (rVACV Nluc/GFP; [8]) | pEC50 (rVACV Nluc/GFP; [7]) | pEC50 [3, 9] | pEC50 (rVACV Nluc/Scarlet; [10]) | pEC50 (rVACV Nluc/GFP; read-out: EC50 Nluc) | CC50 (A549 cells [4]) | CC50 (A549 cells [5]) | pEC50 (rVACV Nluc/Scarlet; read-out: EC50 Nluc) | pEC50 (rVACV Nluc/GFP; [11]) | inhibitory activity against MPXV (in words) [3] | pEC50 ([3]; read-out: EC50 against MPXV) |
| --- | --- | --- | --- | --- | --- | --- | --- | --- | --- | --- | --- | --- | --- | --- | --- |
| CC[C@@]1([C@@H]2O[C@@H]([C@H]3O[C@@](O)(CO)[C@H](C)C[C@@H]3C)C[C@@H]2C)CC[C@H]([C@]2(C)CC[C@]3(C[C@H](O)[C@@H](C)[C@@H]([C@@H](C)[C@@H](OC)[C@H](C)C(=O)O)O3)O2)O1 [Monensin, monensin sodium salt] | > 50000 nM | 7.15 | 7.10 | > 50000 nM | 7.10 | 6.89 | 7.30 |  |  |  |  |  |  |  |  |
| O=c1cnn([C@@H]2O[C@H](CO)[C@@H](O)[C@H]2O)c(=O)[nH]1 [Azauridine, 6-azauridine] | > 50000 nM | 6.08 | 5.82 | > 50000 nM | 5.76 | 5.80 | 5.62 | 6.19 | 5.80 |  |  |  |  |  |  |
| 2,2′-bi-1H-benzimidazole |  |  |  |  |  |  |  | < 4.30 | < 4.30 | > 50000 nM | > 50000 nM | < 4.30 | < 4.30 | did not inhibit MPXV infection | < 4.30 |
| NCC(=O)Nc1ccc(-n2nc(C(F)(F)F)cc2-c2ccc3c(ccc4ccccc43)c2)cc1 [Osu-03012, OSU-03012] |  | 5.63 | 5.59 |  | 5.48 | 5.53 | 5.36 |  | 5.58 |  |  |  |  |  |  |
| O=C1c2ccccc2-n2c1nc1ccccc1c2=O [Tryptanthrin, tryptanthrin] |  | 5.86 | 6.06 |  | 5.87 | 6.09 | 5.32 | 5.86 |  |  |  | 6.01 |  |  | 5.32 |
| CO/C=C(/C(=O)OC)c1ccccc1Oc1cc(Oc2ccccc2C#N)ncn1 [Azoxystrobin, azoxystrobin] |  |  |  |  |  |  |  | 5.10 | 5.21 | 27900 nM | > 450000 nM | 5.21 | 5.11 |  | 4.97 |
| CC(C)(C)[C@H]1CC[C@H](CC2=C(O)C(=O)c3ccccc3C2=O)CC1 [Buparvaquone, buparvaquone] |  | 5.75 | 5.95 |  | 5.73 | 5.97 | 5.14 |  |  |  |  |  | 5.71 |  |  |
| Cc1c(-c2ccc(-c3ccccc3F)cc2)nc2ccc(F)cc2c1C(=O)O [Brequinar, brequinar sodium salt hydrate] | > 50000 nM | 6.92 | 6.96 | > 50000 nM | 6.74 | > 7.40 | 6.80 |  | 7.40 |  |  |  |  |  |  |
| CC[C@@H](C(=O)O)[C@@H]1O[C@@H]([C@@H](C)[C@H](O)[C@H](C)C(=O)[C@H](CC)[C@H]2O[C@]3(C=C[C@@H](O)[C@]4(CC[C@@](C)([C@H]5CC[C@](O)(CC)[C@H](C)O5)O4)O3)[C@H](C)C[C@@H]2C)[C@@H](C)C[C@@H]1C [Narasin, narasin sodium salt] |  | 7.70 | 7.70 |  | 8.00 | 7.52 | 7.30 |  |  |  |  |  |  |  |  |
| C=C(C)[C@H]1Cc2c(ccc3c2O[C@@H]2COc4cc(OC)c(OC)cc4[C@@H]2C3=O)O1 [Rotenone, rotenone] |  | 7.82 | 8.10 |  | 8.00 | 8.15 | 8.15 |  |  |  |  |  |  |  |  |
